Literature values in PMC2613028, “Discovery of a Non-Peptidic Inhibitor of West Nile Virus NS3 Protease by High-Throughput Docking” (PLoS Neglected Tropical Diseases, 2009).
Like-named read-outs stand apart in the source and are kept apart here.

Tested on: WNV protease
Parameters: method as in PMID 17064076
Conditions: peptide aldehyde inhibitors

For “benzoyl-norleucine-lysine-arginine-arginine-aldehyde [Bz-Nle-Lys-Arg-Arg-H]”, the IC50 is listed as 4.1 µM and the IC50 (listed as Bz-nKRR-H) is listed as 4 µM.
